In patent publication US4632925A, “N-substituted diphenylpiperidines and antiobesity use thereof” (Hoffmann-La Roche Inc., priority 1985, dated 1986):
Counter-ions that a name gives are not always drawn.

Legend:
[1] = tested on: isolated perfused rat pancreas (insulin secretion); test: Insulin-secretory activity in the isolated perfused rat pancreas; set-up: species or system rat (female Charles River); settings: 16.7 mM glucose, index > 1 indicates suppression of insulin secretion
Experimental: DETERMINATION OF INSULIN-SECRETORY ACTIVITY IN THE ISOLATED PERFUSED RAT PANCREAS
Pancreases were obtained from young adult female Charles River rats weighing from 200-300 g. The animals were anesthesized with sodium pentobarbitol (45 mg/kg), injected intraperitoneally, and the pancreas with its intact vasculature was removed and connected to an extracorporeal perfusion apparatus.
The basic perfusion solution contained: 133 mM NaCl, 4.4 mM KCl, 2.5 mM MgSO4, 2.4 mM Ca gluconate, 1.5 mM KH2 PO4, 29.4 mM HaHCO3, 4% dextran and 0.2% bovine serum albumin and glucose as discussed below. The perfusion flow rate was kept constant at 4 ml/min. After a 15-20 minute equilibration period, the experimental protocol was begun. The pancreatic effluent was collected in either one or four-minute fractions.
The perfusion was run in the following sequence for each test compounds:
30 min 16.7 mM glucose--internal control
30 min 16.7 mM glucose and test compound
10 min 16.7 mM glucose--to check pancreas viability
The perfusion for the nontreated pancreas preparation was run as above, except that the test compound was omitted and replaced with perfusion solution.
Test compounds were dissolved in 90% ethanol or dimethylsulfoxide to a concentration of 25 mM and then diluted in the perfusion buffer to the desired concentration. The perfusion effluent was collected in one or four minute fractions--the samples were checked immediately, aliquoted for submission to radioimmunoassay and stored at -20° C. until the time of assay. The radioimmunoassay of insulin was carried out by a back-titration method using a pure rat insulin standard.
To assess the inhibitory activity of the test compounds, an inhibition index was calculated. The inhibition index is derived by comparing the insulin secretion response from treated versus nontreated pancreas preparations. For each preparation, a ratio of insulin secretion was calculated from the area under the insulin secretion curve of the first pulse of 16.7 mM glucose divided by the area under the curve of the second pulse of 16.7 mM glucose containing compound.

[2] = Glucose clearance: acute in vivo model; set-up: species or system Sprague-Dawley rats; settings: Rattus norvegicus, po, 0.5 h; 100 mg/kg intragastric, 30 min before i.p. glucose 1 g/kg; circulating glucose at 30 min; >100% indicates activity
Experimental: GLUCOSE CLEARANCE: ACUTE IN VIVO MODEL
The rationale for this test is that compounds which suppress insulin secretion should increase circulating glucose levels above those observed in controls following the administration of a high glucose load. Sprague-Dawley rats which range in weight from 150 to 180 grams after an overnight fast of 16 or 18 hours are given the test compound (100 mg/kg body weight) by intragastric administration 30 minutes before the intraperitoneal administration of glucose (1 g/kg body weight). Circulating glucose levels are determined immediately before glucose administration and 30, 60 and 90 minutes after glucose administration. Active compounds increase circulating glucose levels compared to controls. Since glucose levels peak at 30 minutes following glucose administration, the difference in circulating glucose levels between controls and treated rats at 30 minutes is used as an index of activity. The data are expressed as percent of control.

[3] = Antiobesity effects in obese Zucker rats; type: in vivo, genetically obese male Zucker rats; settings: 14 days; for Relative Body Weight Gain Index: gain / days / dose (g/kg)
Experimental: ANTIOBESITY EFFECTS IN OBESE ZUCKER RATS
Genetically Obese Male Zucker rats were kept in temperature (22° C.) and light (12 hours light-dark cycle) regulated rooms. One week prior to the start of the experiment, the rats were transferred to individual wirebottomed cages and trained to eat a powdered chow diet (Ralston Purina Co., St. Louis, Mo.) ad libitum.
At the beginning of the experiment, the control group contributed to eat the chow diet and the experimental animals were given a chow diet containing drug. The amount of drug administered was calculated from the food intake per kg body weight for each experimental group. The age of the rats at the start of the drug treatment was two to three months. The period of treatment was 28 to 64 days. Food intake and body weights were recorded periodically (once each day to twice a week) throughout the duration of the study. Plasma samples for insulin and glucose determinations were taken from clipped tails. Carcass composition was determined at the end of the treatment period and, or comparative purposes, prior to the start of treatment.

[4] = Antiobesity effects in obese Zucker rats; type: in vivo, genetically obese male Zucker rats; settings: 46 mg/kg, 14 days; gain / days / dose (g/kg)

O=C(CCCc1cccnc1)N1CCC(C(c2ccccc2)c2ccccc2)CC1 [Example 10, 4-diphenylmethyl-1-[1-oxo-4-(3-pyridinyl)butyl]piperidine, 0.1 molar ethylacetate solvate]
Perfused Pancreas Inhibition Index ([1]; 100 μM): 6.0
response vs control in vivo at 100 mg/kg [2]: 105%

O=C(CCCc1cccnc1)N1CCC(C=C(c2ccccc2)c2ccccc2)CC1 [Example 11, 4-(2,2-diphenylethenyl)-1-[1-oxo-4-(3-pyridinyl)butyl]piperidine]
Perfused Pancreas Inhibition Index ([1]; 50 μM): 7.6
response vs control in vivo at 100 mg/kg [2]: 99%

O=C(CCCc1cccnc1)N1CCC(CC(c2ccccc2)c2ccccc2)CC1 [Example 14, 4-(2,2-diphenylethyl)-1-[1-oxo-4-(3-pyridinyl)butyl]piperidine]
Perfused Pancreas Inhibition Index ([1]; 100 μM): 14.1
response vs control in vivo at 100 mg/kg [2]: 109%

c1ccc(C(c2ccccc2)C2CCN(CCCCc3cccnc3)CC2)cc1 [Example 16, 3-[4-[4-(Diphenylmethyl)-1-piperidinyl]butyl]pyridine (1:1)-(Z)-2-butenedioate salt]
Perfused Pancreas Inhibition Index ([1]; 100 μM): 5.3
response vs control in vivo at 100 mg/kg [2]: 120%

C(=C(c1ccccc1)c1ccccc1)C1CCN(CCCCc2cccnc2)CC1 [Example 17, 3-[4-[4-(2,2-Diphenylethenyl)-1-piperidinyl]butyl]pyridine]
Perfused Pancreas Inhibition Index ([1]; 100 μM): 1.7
response vs control in vivo at 100 mg/kg [2]: 101%

Fc1ccc(C(=CC2CCN(CCCCc3cccnc3)CC2)c2ccc(F)cc2)cc1 [Example 18, 3-[4-[4-[2,2-bis(4-fluorophenyl)ethenyl]-1-piperidinyl]butyl]pyridine (1:1)-(E)-2-butenedioate salt]
Perfused Pancreas Inhibition Index ([1]; 100 μM): 0.6
response vs control in vivo at 100 mg/kg [2]: 113%

C(=C(c1ccccc1)c1ccccc1)C1CCN(CCCCCc2cccnc2)CC1 [Example 19, 3-[5-[4-(2,2-Diphenylethenyl)-1-piperidinyl]pentyl]pyridine (1:1)-(E)-2-butenedioate salt]
Perfused Pancreas Inhibition Index ([1]; 100 μM): 24.1
response vs control in vivo at 100 mg/kg [2]: 97%

c1ccc(C(CC2CCN(CCCCc3cccnc3)CC2)c2ccccc2)cc1 [Example 20, 3-[4-[4-(2,2-Diphenylethyl)-1-piperidinyl]butyl]pyridine]
Perfused Pancreas Inhibition Index ([1]; 100 μM): 19.1
response vs control in vivo at 100 mg/kg [2]: 106%

Fc1ccc(C(CC2CCN(CCCCc3cccnc3)CC2)c2ccc(F)cc2)cc1 [Example 21, 3-[4-[4-[2,2-Bis(4-fluorophenyl)ethyl]-1-piperidinyl]butyl]pyridine (1:1)-(E)-2-butenedioate salt]
Perfused Pancreas Inhibition Index ([1]; 100 μM): 16.3
response vs control in vivo at 100 mg/kg [2]: 136%

C(=C(c1ccccc1)c1ccccc1)C1CCN(CCCc2cccnc2)CC1 [Example 22, 3-[3-[4-(2,2-Diphenylethenyl)-1-piperidinyl]propyl]pyridine (1:1)-(E)-2-butenedioate salt]
Perfused Pancreas Inhibition Index ([1]; 100 μM): 10.1
response vs control in vivo at 100 mg/kg [2]: 101%

C(=C(c1ccccc1)c1ccccc1)C1CCN(CCCCCCc2cccnc2)CC1 [Example 23, 3-[6-[4-(2,2-diphenylethenyl)-1-piperidinyl]hexyl]pyridine (1:1)-(E)-2-butenedioate salt]
Perfused Pancreas Inhibition Index ([1]; 100 μM): 2.6
response vs control in vivo at 100 mg/kg [2]: 144%

C(=C(c1ccccc1)c1ccccc1)C1CCN(CCCCCCCc2cccnc2)CC1 [Example 24, 3-[7-[4-(2,2-Diphenylethenyl)-1-piperidinyl]heptyl]pyridine (1:1)-(E)-2-butenedioate salt hemihydrate]
Perfused Pancreas Inhibition Index ([1]; 50 μM): 35
response vs control in vivo at 100 mg/kg [2]: 118%

Fc1ccc(C(CC2CCN(CCCCCCc3cccnc3)CC2)c2ccc(F)cc2)cc1 [Example 26, 3-[6-[4-[2,2-Bis(4-fluorophenyl)ethyl]-1-piperidinyl]hexyl]pyridine (1:1)-(E)-2-butenedioate salt]
Perfused Pancreas Inhibition Index ([1]; 50 μM): 2.0
response vs control in vivo at 100 mg/kg [2]: 125%

c1ccc(C(CC2CCN(CCCCCCCCc3cccnc3)CC2)c2ccccc2)cc1 [Example 27, 3-[8-[4-(2,2-Diphenylethyl)-1-piperidinyl]octyl]pyridine]
Relative Body Weight Gain Index ([3]; 58 mg/kg): 94
Body Weight Gain (treated minus control) ([3]; 58 mg/kg, marked *): -76 g
Food Intake ([3]; 58 mg/kg, marked *): 70 % of control

C(=C(c1ccccc1)c1ccccc1)C1CCN(CCCCc2cncnc2)CC1 [Example 28, 5-[4-[4-(2,2-diphenylethenyl)-1-piperidinyl]butyl]pyrimidine (1:1)-(E)-2-butenedioate salt]
Perfused Pancreas Inhibition Index ([1]; 100 μM): 3.0
response vs control in vivo at 100 mg/kg [2]: 147%

C(=C(c1ccccc1)c1ccccc1)C1CCN(CCCCCCc2cncnc2)CC1 [Example 29, 5-[6-[4-(2,2-Diphenylethenyl)-1-piperidinyl]hexyl]pyrimidine]
Perfused Pancreas Inhibition Index ([1]; 100 μM): 10.4
response vs control in vivo at 100 mg/kg [2]: 104%

C(=C(c1ccccc1)c1ccccc1)C1CCN(CCCCCCCCCc2cccnc2)CC1 [Example 31, 3-[9-[4-(2,2-Diphenylethenyl)-1-piperidinyl]nonyl]pyridine]
Relative Body Weight Gain Index ([3]; 41 mg/kg): 61
Body Weight Gain (treated minus control) ([3]; 41 mg/kg, marked *): -35 g
Food Intake ([3]; 41 mg/kg, marked *): 82 % of control
Perfused Pancreas Inhibition Index ([1]; 50 μM): 2.7
response vs control in vivo at 100 mg/kg [2]: 107%

C(=C(c1ccccc1)c1ccccc1)C1CCN(CCCCCCCCCCc2cccnc2)CC1 [Example 32, 3-[10-[4-(2,2-Diphenylethenyl)-1-piperidinyl]decyl]pyridine]
Food Intake ([3]; 46 mg/kg): 91 % of control
Body Weight Gain (treated minus control) ([3]; 46 mg/kg, marked *): -46 g
Relative Body Weight Gain Index [4]: 71
response vs control in vivo at 100 mg/kg [2]: 100%

O=C(CCCCCn1ccnc1)N1CCC(C=C(c2ccccc2)c2ccccc2)CC1 [Example 33, 4-(2,2-Diphenylethenyl)-1-[1-oxo-6-(1H-imidazo-1-yl)hexyl]piperidine]
Perfused Pancreas Inhibition Index ([1]; 50 μM): 2.5
response vs control in vivo at 100 mg/kg [2]: 120%

C(=C(c1ccccc1)c1ccccc1)C1CCN(CCCCCCn2ccnc2)CC1 [Example 34, 1-[6-[4-(2,2-Diphenylethenyl)-1-piperidinyl]hexyl]-1H-imidazole]
Perfused Pancreas Inhibition Index ([1]; 50 μM): 1.1
response vs control in vivo at 100 mg/kg [2]: 101%
